Assay results taken from the METLIN SMRT retention time set (Domingo-Almenara et al. 2019).

Test: gradient 5% acetonitrile 3 min, to 50% in 2 min, to 85% in 15 min, held 3 min, 100 µL/min
Conditions: column: Zorbax Extend-C18 2.1 x 50 mm; eluents: water / acetonitrile, 0.1% formic acid
Summary of the method: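 Retention time was recorded from adduct peaks, which were picked computationally and each inspected manually. Pure standards ran in mixtures of ~100 molecules on HPLC coupled to a quadrupole time-of-flight mass spectrometer, in positive and negative ionization mode, through a Zorbax Extend-C18 column (2.1 × 50 mm, 1.8 μm) at 100 μL/min. Eluents were water and acetonitrile, each with 0.1% formic acid.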

Compound | RP-LC retention time
COCC1CCN(C(=O)C2CCN(c3cnn(Cc4ccccc4)c(=O)c3)CC2)CC1 | 727 s
O=c1n(Cc2cc(F)cc(F)c2)nc2c(S(=O)(=O)N3CCCCCC3)cccn12 | 973 s
CCOC(=O)c1nc(NCC2CCN(Cc3ccccc3C)CC2)c2c(C)noc2n1 | 738 s
Fc1cc(F)cc(-c2nnc(Cc3nc(-c4cccc(C(F)(F)F)c4)no3)o2)c1 | 851 s
Cc1ccc(CNC(=O)CCC2CCN(c3cc(NC4CC4)ncn3)CC2)o1 | 660 s
COCCN1CCn2cc(S(=O)(=O)Nc3ccc(C)c(F)c3)cc2C1=O | 740 s
CC1CN(C2CCCCC2)c2nc3c(c(=O)n(CCN4CCCCC4)c(=O)n3C)n2C1 (stereo unspecified) | 722 s
CCOc1ccc(C(O)CN2CCN(c3ccccn3)CC2)cc1Cl (stereo unspecified) | 591 s
O=C(N[C@@H](COc1ccc2[nH]c(=O)[nH]c2c1)c1ccccc1)c1cccn(Cc2ccc(F)c(F)c2)c1=O | 893 s
Cc1ccc(-c2cc3c4nnc(CCC(=O)N5CCN(c6ccccn6)CC5)n4ccn3n2)cc1C | 650 s
O=C(NCc1cc(F)ccc1F)C1CCN(C(=O)c2ncn3c2COC(c2ccccc2)C3)CC1 (stereo unspecified) | 766 s
O=C(c1cc2c(s1)CCCC2)N1CCCN(c2nnc3ccc(Cl)cn23)CC1 | 863 s
CS(=O)(=O)N1CCN(C(=O)Cc2csc(Nc3ncccn3)n2)CC1 | 601 s
CCOc1ccccc1N1CCN(Cc2nc3nc(C)cc(N4CCCC4)n3n2)CC1 | 627 s
CCN(CC)S(=O)(=O)c1ccc(C)c(-c2nnc(-c3ccc(F)cc3)o2)c1 | 1100 s
COc1ccc(C2Cn3cnc(C(=O)N4CCC(C(=O)NCc5cccs5)CC4)c3CO2)cc1 (stereo unspecified) | 715 s
c1nn2cnnc2cc1N1CCN(Cc2csc3c2CCCC3)CC1 | 609 s
Cc1nc2cc(-c3noc(Cc4ccc(F)cc4)n3)ccc2o1 | 983 s
CC(C)C(=O)Nc1ccc(N2CCN(CC(=O)N3CCCC3)CC2)cc1C(=O)O | 587 s
Cc1cc(C(=O)NCc2ccccc2F)nc2cc(-c3cccs3)nn12 | 1120 s
CCN(CC)c1ccc(NC(=O)CSc2cc(N3CCCC3)ncn2)c(C)c1 | 600 s

Other lines, results leading:

RP-LC retention time | Compound
710 s | O=C(Nc1ccc(C2(C(=O)O)CCC2)cc1)C1CC1
1290 s | CCn1cc(C(=O)Nc2ccc(Br)cc2F)c(=O)c2ccc(C)nc21
584 s | O=c1[nH]ccc2c(O)cccc12
933 s | CCOC(=O)c1cccc(NC(=O)C2CCCN(c3ccc(=O)n(-c4ccc(F)cc4)n3)C2)c1 (stereo unspecified)
678 s | Cc1ccn2cc(-c3ccc(NC(=O)c4cccc(Cl)c4)cc3)nc2n1
923 s | Cc1cc(C)cc(NC(=O)C2CC(=O)N(CCc3c[nH]c4ccc(C)cc34)C2)c1 (stereo unspecified)
778 s | COc1ccc(NC(=O)N2C[C@@H]3C[C@H]2C[C@@H]3NS(=O)(=O)c2ccccc2)cc1F
901 s | Cc1oc(-c2ccc(NC(=O)c3ccc(Br)o3)cc2)nc1Cn1cccn1
842 s | Cc1cc(C)cc(N2CCC(NC(=O)c3cccs3)C2=O)c1 (stereo unspecified)
740 s | Cc1ccc(NC(=O)Cn2ccc3sccc3c2=O)cc1C
1270 s | O=C(Nc1cc(F)ccc1F)c1c(O)c2cccnc2n(-c2ccc(F)cc2)c1=O
761 s | COc1ccc(CCN2CC(=O)N3Cc4[nH]c5ccccc5c4C[C@H]3C2=O)cc1OC
920 s | COC(=O)c1ccc(Cl)cc1NC(=O)COc1nc(C)nc2ccccc12
719 s | O=S(=O)(Nc1cccn2c(C3CCC3)nnc12)c1cccc2nsnc12
634 s | COCCNC(=O)Cn1c(=O)n(-c2ccccc2)c2ncccc21
